Reference: patent US20090239834A1, “MCC-257 MODULATION OF NEUROGENESIS” (BrainCells, Inc., priority 2008, published 2009)
“Also recorded” adds a separate entry of the source.

Key:
[1] = system: neural progenitor cells within the dentate gyrus of the hippocampus; assay: In vivo neurogenesis, BrdU positive cell counts in the dentate gyrus; set-up: species or system rat; settings: 0.3 mg/kg orally q.d., chronic (26 or 28 days as printed); vs vehicle; FIG. 3
Procedure: The white bar represents vehicle (DI water, n=11) and the grey bar represents MCC-257 dosed at 0.3 mg/kg (n=10). Both vehicle and MCC-257 were dosed orally once daily (q.d.) for 26 days prior to analysis. […] Data are presented as the number of BrdU cells per cubic mm of dentate gyrus. […] Values are the mean±SEM.
For the in vivo neurogenesis assays, male F344 rats were dosed orally once daily (q.d.) for 28-days with vehicle (DI water; n=11) or 0.3 mg/kg MCC-257 ([…]). BrdU was administered once daily between days 9 and 14 (100 mg/kg/day, i.p.).

male F344 rats [2] = assay: Novelty-suppressed feeding test (NSF), chronic dosing; format: in vivo, rat; settings: vs vehicle, p<0.05 one-tailed Student's t-test, FIG. 2
Procedure: The white bar represents the vehicle control (DI water; n=10), the black bar represents fluoxetine dosed at 12.5 mg/kg (n=11) and the grey bar represents MCC-257 dosed at 0.3 mg/kg (n=11). Vehicle and compounds were administered orally once daily (q.d.) for 20 days prior to behavioral testing. Behavioral testing was carried out as described in Example 2. […] Values are the mean±SEM.
The NSF is a conflict test in which food-deprived animals are presented with a food pellet placed in the center of a brightly-lit open field. This paradigm elicits competing motivations: the drive to eat the food pellet, and the fear of venturing into the center of the arena. The dependent variable in this test is the amount of time it takes for an animal to begin eating the pellet, and this latency has been used as an index of anxiety-like behavior and antidepressant activity because it is decreased by classical anxiolytic drugs such as benzodiazepines (Bodnoff et al. “The effects of chronic antidepressant treatment in an animal model of anxiety.” 1988 Psychopharmacology (Berl) 95(3):298-302; Bodnoff et al. “A comparison of the effects of diazepam versus several typical and atypical anti-depressant drugs in an animal model of anxiety.” 1989 Psychopharmacology (Berl) 97(2):277-9; Shephard and Broadhurst, “Hyponeophagia and arousal in rats: effects of diazepam, 5-methoxy-N,N-dimethyltryptamine, d-amphetamine and food deprivation.” 1982 Psychopharmacology (Berl) 78(4):[…]) as well as antidepressants.
NSF is performed as described previously by Santarelli, et al. (2003) with some modifications. Briefly, male F344 rats were dosed orally once daily (q.d.) for 20-days with vehicle (DI water; n=10), 12.5 mg/kg fluoxetine (n=11) or 0.3 mg/kg MCC-257 (n=11). Animals were food deprived for 24 hours prior to testing. On day 22, 60 minutes after drug administration, NSF was performed in an open field chamber. A single pellet of rodent chow was placed in the center of the open field. […] Saved videos were subsequently scored by blinded observers and the latency to eat the pellet was recorded.

male F344 rats [3] = assay: Novel Object Recognition (NOR) cognition assay; format: in vivo, rat; settings: 48-hour delay; increasing oral doses q.d., chronic; vs vehicle; FIG. 4
Procedure: Behavioral testing was carried out as described in Example 2. Data is presented as the mean percentage of visits to a novel object. The white bar represents vehicle (DI water: n=11) and grey bars represent increasing doses of MCC-257 (0.1 mg/kg, n=10; 0.3 mg/kg, n=10; 3.0 mg/kg, n=10). All animals were dosed orally once daily (q.d.) for 29 days prior to testing. […] Values are the mean±SEM.
NOR was performed as described previously by Broadbent et al., (“Spatial memory, recognition memory, and the hippocampus.” 2004 PNAS 101(40):14511-14520) with some modifications. The apparatus consisted of an open field (45×45×50 cm high) made of polycarbonate. Triplicate copies were used of the objects to be discriminated. Care was taken to ensure that the pair of objects tested were made from the same material so that they could not be distinguished readily by olfactory cues although they had very different appearances. Each test session consisted of two phases. In the initial familiarization phase, two identical objects (A1 and A2) were placed in the far corners of the box arena. A rat was then placed in the middle of the arena and allowed 15 minutes to explore both objects. Exploration of an object was defined as directing the nose to the object at a distance of less than 2 cm and/or touching it with the nose. After a delay of 48-hours the rat was re-introduced to the arena (“test phase”). […]

[4] = system: human neural stem cells (hNSCs); assay: Neuronal differentiation of human neural stem cells (TUJ-1 staining); format: cell-based
From the text: FIG. 1 is a dose-response curve showing the effect of MCC-257 on neuronal differentiation of human neural stem cells. Data is presented as the percentage of the neuronal positive control, with basal media values subtracted.
Human neural stem cells (hNSCs) were isolated and grown in monolayer culture, plated, treated with varying concentrations of MCC-257, and stained with TUJ-1 antibody for the detection of neuronal differentiation as described in U.S. Patent Publication 2007/0015138 (incorporated by reference). Mitogen-free test media with a positive control for neuronal differentiation was used along with basal media without growth factors as a negative control.
The data is presented as a percent of neuronal positive control.

| SMILES | BrdU positive cells per cubic mm in granule cell layer of dentate gyrus (neurogenesis) [1] | latency to eat a food pellet in a novel environment (male F344 rats [2]; 0.3 mg/kg orally q.d. for 20 days) | preference for the novel object (percent visits) (male F344 rats [3]) | EC50 ([4]; Homo sapiens, Neural stem cell, read-out: EC50 of neuronal differentiation) | effect on neuronal differentiation ([4]; concentration response curve, percent of neuronal positive control, FIG. 1) | latency to eat a food pellet in a novel environment (male F344 rats [2]; 12.5 mg/kg orally q.d. for 20 days) | latency to eat a food pellet in a novel environment (male F344 rats [2]; 12.5 mg/kg orally q.d. for 20 days, listed as Fluoxetine) |
| --- | --- | --- | --- | --- | --- | --- | --- |
| CO[C@]1(C(=O)N[C@@H]2CC[C@@]3(C)[C@@H](CC[C@@H]4[C@@H]3CC[C@]3(C)[C@@H]([C@H](C)CCCC(C)C)CC[C@@H]43)C2)C[C@H](O)[C@@H](NC(C)=O)[C@H]([C@H](O)[C@H](O)CO)O1 [MCC-257, 5-acetamido-N-(5alpha-cholestan-3alpha-yl)-3,5-dideoxy-2-O-methyl-D-glycero-alpha-D-galacto-non-2-ulopyranosonamide] | significant increase; also recorded: significantly increased neurogenesis | significantly reduced latency to eat | dose dependent increase in preference for the novel object; also recorded: dose-related increase in preference for the novel object | 90 nM | promoted neuronal differentiation in a concentration dependent manner | – | – |
| CNCCC(Oc1ccc(C(F)(F)F)cc1)c1ccccc1 (stereo not shown) [fluoxetine, reference compound] | – | – | – | – | – | significantly reduced | significantly reduced latency to eat |
